The text below walks through data of PubChem BioAssay (NCI).

“And” between values parts separate entries of the source, which are not always exact repeats. Equal values may be shown once.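 Dose response: 5 concentrations. Exposure: 48 h. Format: 96-well plates. Endpoint: linear interpolation; highest concentration if not reached. The concentration for 50% growth inhibition is given as GI50. TGI denotes the concentration required for complete inhibition of growth.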

Some test systems named below: UACC-257 melanoma; CAKI-1 renal; OVCAR-5 ovarian; HCC-2998 colon; SNB-19 CNS; OVCAR-8 ovarian; A549 NSCLC; ACHN renal.
Test in all cases: NCI anticancer screen, dose series, 48 h

For the compound `Nc1nc2ccc3[nH]ncc3c2c2c1CCCC2`, the GI50 is 3.28 µM with UACC-257 melanoma; 0.609 µM with CAKI-1 renal; 1.94 µM in the experiment on OVCAR-5 ovarian; 1.61 µM with HCC-2998 colon; 2.64 µM in the experiment on SNB-19 CNS; 2.14 µM with OVCAR-8 ovarian. Further, the GI50 in the experiment with A549 NSCLC was 2.24 µM; with ACHN renal, 1.56 µM. Besides, the TGI in the experiment with UACC-257 melanoma was 11.6 µM; in the experiment on CAKI-1 renal, 8.24 µM; in the experiment on OVCAR-5 ovarian it was 8.91 µM; in the experiment with HCC-2998 colon, 3.62 µM; with SNB-19 CNS, 10.8 µM; in the experiment with OVCAR-8 ovarian it was 18.8 µM. Moreover, the TGI in the experiment on A549 NSCLC was found to be 13.4 µM; in the experiment with ACHN renal, 10.5 µM.
Turning to `N#C/C(=C\Nc1ccccn1)C(=O)c1ccco1`, the TGI in the experiment with UACC-257 melanoma, in the experiment with CAKI-1 renal, in the experiment on OVCAR-5 ovarian, in the experiment on HCC-2998 colon, in the experiment on SNB-19 CNS and in the experiment on OVCAR-8 ovarian was > 100 µM each time. Also, the TGI in the experiment on A549 NSCLC and in the experiment with ACHN renal was > 100 µM throughout.
Regarding `O=CC(Br)C(Br)c1ccccc1` (stereo not given), the GI50 in the experiment with UACC-257 melanoma is 1.9 µM; with CAKI-1 renal, 2.6 µM; in the experiment with OVCAR-5 ovarian it was 4.5 µM; with HCC-2998 colon, 15.1 µM; in the experiment with SNB-19 CNS, 12.8 µM; with OVCAR-8 ovarian, 2.95 µM. Further, the GI50 is 21.1 µM in the experiment with A549 NSCLC and 1.64 µM in the experiment with ACHN renal. Further, the TGI in the experiment on UACC-257 melanoma came out at 4.56 µM; with CAKI-1 renal, 6.98 µM; with OVCAR-5 ovarian it was 13.2 µM; with HCC-2998 colon, 29.4 µM; with SNB-19 CNS it was 26.2 µM; with OVCAR-8 ovarian, 10.2 µM. The TGI was found to be 49.9 µM with A549 NSCLC and 3.12 µM in the experiment with ACHN renal.
For the compound `Cc1cc(Oc2cnc(=O)[nH]c2)cs1`, the TGI with UACC-257 melanoma, in the experiment on CAKI-1 renal, in the experiment with OVCAR-5 ovarian, in the experiment on HCC-2998 colon, in the experiment on SNB-19 CNS and in the experiment with OVCAR-8 ovarian was > 100 µM in each case. Besides, the TGI in the experiment with A549 NSCLC and in the experiment with ACHN renal was > 100 µM throughout.
As to `CN1CCC(C(=O)Nc2n[nH]c3nc(-c4ccc(O)cc4)c(Br)cc23)CC1`, the GI50 in the experiment on UACC-257 melanoma was 4.3 µM and 6.17 µM; in the experiment on CAKI-1 renal it was 8.62 µM and 6.77 µM; in the experiment on OVCAR-5 ovarian, 7.83 µM and 10.4 µM; with HCC-2998 colon, 1.08 µM and 1.32 µM; with SNB-19 CNS it was 1.12 µM and 2.97 µM; in the experiment on OVCAR-8 ovarian, 0.965 µM and 1.77 µM. Besides, the GI50 in the experiment with A549 NSCLC is 5.72 µM and 7.38 µM; in the experiment with ACHN renal, 5.37 µM and 6.3 µM. Also, the TGI with UACC-257 melanoma was 12.3 µM and 14.6 µM; with CAKI-1 renal, > 25 µM; in the experiment on OVCAR-5 ovarian, > 25 µM; in the experiment with HCC-2998 colon, 5.72 µM and 8.32 µM; in the experiment with SNB-19 CNS it was > 25 µM; with OVCAR-8 ovarian, > 20.2 µM. Also, the TGI with A549 NSCLC and in the experiment on ACHN renal was > 25 µM each time.
Take `C[n+]1c2ccccc2c(Nc2ccc(NS(=O)(=O)CCCCN=C(N)N)cc2)c2ccc(N)cc21`: the GI50 in the experiment on UACC-257 melanoma was 21.7 µM; in the experiment on CAKI-1 renal, 10.1 µM; with OVCAR-5 ovarian it was 41.8 µM; with HCC-2998 colon it was 8.97 µM; in the experiment on SNB-19 CNS, 0.444 µM; in the experiment on OVCAR-8 ovarian, 2.48 µM. Further, the values for the GI50 in the experiment with A549 NSCLC and in the experiment with ACHN renal were < 0.0128 µM and 2.79 µM, respectively. Also, the TGI with UACC-257 melanoma was > 95.6 µM; in the experiment on CAKI-1 renal, > 100 µM; with OVCAR-5 ovarian, > 100 µM; in the experiment with HCC-2998 colon, > 100 µM; in the experiment on SNB-19 CNS, > 100 µM; with OVCAR-8 ovarian, > 100 µM. Further, the TGI with A549 NSCLC was 16 µM; with ACHN renal, > 100 µM.
As to `CN1C(=O)C(=Cc2cn(Cc3ccccc3)c3ccccc23)C(=O)N(C)C1=O`, the GI50 was 9.82 µM in the experiment on UACC-257 melanoma; 0.234 µM with OVCAR-5 ovarian; > 33.7 µM with HCC-2998 colon; > 100 µM with SNB-19 CNS; 35.8 µM in the experiment with OVCAR-8 ovarian; > 39.7 µM with A549 NSCLC. Further, in the experiment on ACHN renal, the GI50 is 51.8 µM. Also, the TGI with UACC-257 melanoma is > 100 µM; with CAKI-1 renal it was > 25.5 µM; in the experiment with OVCAR-5 ovarian it was 0.82 µM; with HCC-2998 colon it was > 70.8 µM; in the experiment on SNB-19 CNS it was > 100 µM; with OVCAR-8 ovarian, > 82.6 µM. The TGI in the experiment with A549 NSCLC and with ACHN renal was > 100 µM throughout.
On to `CC1(C)N=C(N)N=C(N)N1c1ccc(CCc2ccc(Cl)cc2S(=O)(=O)F)c(Cl)c1`, for which the GI50 is 9.6 µM in the experiment with UACC-257 melanoma; > 100 µM in the experiment with CAKI-1 renal; 4.76 µM with OVCAR-5 ovarian; 11.8 µM with HCC-2998 colon; 7.95 µM with SNB-19 CNS; 7.2 µM with OVCAR-8 ovarian. Also, the GI50 was 1.49 µM with A549 NSCLC and 44.6 µM with ACHN renal. Also, the TGI in the experiment on UACC-257 melanoma is 27.5 µM; in the experiment with CAKI-1 renal, > 100 µM; in the experiment with OVCAR-5 ovarian, > 100 µM; in the experiment with HCC-2998 colon, 45.9 µM; in the experiment on SNB-19 CNS, > 100 µM; in the experiment on OVCAR-8 ovarian, 69.1 µM. Also, the TGI in the experiment on A549 NSCLC and in the experiment on ACHN renal was > 100 µM each time.
With `COc1c2c(c(CC=C(C)C)c3oc(=O)c(-c4ccc(O)cc4)c(O)c13)OC(C)(C)C=C2`, the TGI in the experiment on UACC-257 melanoma was > 100 µM; with CAKI-1 renal it was > 100 µM; in the experiment with OVCAR-5 ovarian, > 100 µM; with HCC-2998 colon it was 48.1 µM; with SNB-19 CNS, > 100 µM; with OVCAR-8 ovarian it was > 100 µM. Moreover, the TGI was > 100 µM in the experiment with A549 NSCLC and 92.7 µM in the experiment on ACHN renal.
Take `COc1ccc(-c2cn(-c3cccc(C(=O)/C=C/c4ccc(O)c(OC)c4)c3)c(=O)[nH]2)cc1`: the GI50 in the experiment with UACC-257 melanoma is 8.03 µM; with CAKI-1 renal it was 5.79 µM; in the experiment on OVCAR-5 ovarian, 8.25 µM; in the experiment with HCC-2998 colon it was 2.39 µM; with SNB-19 CNS it was 4.59 µM; in the experiment on OVCAR-8 ovarian, 3.58 µM. Also, the GI50 in the experiment with A549 NSCLC is 3.64 µM; in the experiment with ACHN renal it was 2.55 µM. In addition, the TGI was 39.3 µM with UACC-257 melanoma; 50.4 µM in the experiment on CAKI-1 renal; 35.4 µM in the experiment with OVCAR-5 ovarian; 6.14 µM in the experiment on HCC-2998 colon; 43.9 µM in the experiment with SNB-19 CNS; > 49.6 µM with OVCAR-8 ovarian. Also, the TGI was > 53 µM in the experiment on A549 NSCLC and 6.22 µM with ACHN renal.
